Source: ChEMBL document CHEMBL5724914, “Linking interpersonal differences in gut microbiota composition and drug biotransformation activity” (2024)

Columns and labels:
[1] = human gut metagenome, 24 h, 2 µM
[2] = (§1) The drug is tested on WLS-370 corresponding to human gut metagenome with ENA study accession number: PRJEB37062 and ENA sample accession number: ERS12561793 for biotransformation under anaerobic condition. The drug concentrations were measured over 9 timepoints collected between 0 and 24 hours of incubation by liquid-chromatography-coupled mass spectrometry (LC–MS); settings: 2 µM
[3] = as §1, with “WLS-310” for “WLS-370”, “ERS12561785” for “ERS12561793”; settings: 2 µM
[4] = human gut metagenome, 24 h, 2 µM; remark: listed apart in the source
[5] = human gut metagenome, 24 h, 2 µM; remark: listed apart in the source
[6] = as §1, with “Z-026” for “WLS-370”, “to” for “to human gut”, “ERS12561825” for “ERS12561793”; settings: 2 µM
[7] = as §1, with “WLS-077” for “WLS-370”, “ERS12561750” for “ERS12561793”; settings: 2 µM
[8] = as §1, with “Z-014” for “WLS-370”, “rat” for “human”, “ERS12561814” for “ERS12561793”; settings: 2 µM
[9] = human gut metagenome, 24 h, 2 µM; remark: listed apart in the source
[10] = human gut metagenome, 24 h, 2 µM; remark: listed apart in the source
[11] = human gut metagenome, 24 h, 2 µM; remark: listed apart in the source
[12] = as §1, with “Z-030” for “WLS-370”, “mouse” for “human”, “ERS12561829” for “ERS12561793”; settings: 2 µM
[13] = human gut metagenome, 24 h, 2 µM; remark: listed apart in the source
[14] = human gut metagenome, 24 h, 2 µM; remark: listed apart in the source
[15] = human gut metagenome, 24 h, 2 µM; remark: listed apart in the source
[16] = as §1, with “WLS-052” for “WLS-370”, “ERS12561747” for “ERS12561793”; settings: 2 µM
[17] = as §1, with “Z-001” for “WLS-370”, “mouse” for “human”, “ERS12561801” for “ERS12561793”; settings: 2 µM
[18] = human gut metagenome, 24 h, 2 µM; remark: listed apart in the source
[19] = human gut metagenome, 24 h, 2 µM; remark: listed apart in the source
[20] = as §1, with “WLS-073” for “WLS-370”, “ERS12561749” for “ERS12561793”; settings: 2 µM
Further: call rule not given here.

SMILES	Bacterial Biotransformation [1]	Bacterial Biotransformation [2]	Bacterial Biotransformation [3]	Bacterial Biotransformation [4]	Bacterial Biotransformation [5]	Bacterial Biotransformation [6]	Bacterial Biotransformation [7]	Bacterial Biotransformation [8]	Bacterial Biotransformation [9]	Bacterial Biotransformation [10]	Bacterial Biotransformation [11]	Bacterial Biotransformation [12]	Bacterial Biotransformation [13]	Bacterial Biotransformation [14]	Bacterial Biotransformation [15]	Bacterial Biotransformation [16]	Bacterial Biotransformation [17]	Bacterial Biotransformation [18]	Bacterial Biotransformation [19]	Bacterial Biotransformation [20]
CC[C@@H](CO)NC(=O)[C@@H]1C=C2c3cccc4c3c(cn4C)C[C@H]2N(C)C1.O=C(O)/C=C\C(=O)O [METHYSERGIDE MALEATE]	Compound metabolized	Compound NOT metabolized	Compound metabolized	Compound NOT metabolized	Compound NOT metabolized	Compound NOT metabolized	Compound NOT metabolized	Compound NOT metabolized	Compound NOT metabolized	Compound NOT metabolized	Compound NOT metabolized	Compound NOT metabolized	Compound metabolized	Compound NOT metabolized	Compound NOT metabolized	Compound NOT metabolized	Compound NOT metabolized	Compound metabolized	Compound NOT metabolized	Compound NOT metabolized
CCN(CC)CCNC(=O)c1cc(Cl)c(N)cc1OC [METOCLOPRAMIDE]	Compound NOT metabolized	Compound NOT metabolized	Compound NOT metabolized	Compound NOT metabolized	Compound NOT metabolized	Compound NOT metabolized	Compound NOT metabolized	Compound NOT metabolized	Compound NOT metabolized	Compound NOT metabolized	Compound NOT metabolized	Compound NOT metabolized	Compound NOT metabolized	Compound NOT metabolized	Compound NOT metabolized	Compound NOT metabolized	Compound NOT metabolized	Compound NOT metabolized	Compound NOT metabolized	Compound NOT metabolized
Cc1ccccc1N1C(=O)c2cc(S(N)(=O)=O)c(Cl)cc2NC1C (stereo not given) [METOLAZONE]	Compound NOT metabolized	Compound NOT metabolized	Compound NOT metabolized	Compound metabolized	Compound metabolized	Compound metabolized	Compound NOT metabolized	Compound NOT metabolized	Compound metabolized	Compound NOT metabolized	Compound NOT metabolized	Compound NOT metabolized	Compound metabolized	Compound NOT metabolized	Compound NOT metabolized	Compound metabolized	Compound NOT metabolized	Compound NOT metabolized	Compound metabolized	Compound NOT metabolized
COCCc1ccc(OCC(O)CNC(C)C)cc1.COCCc1ccc(OCC(O)CNC(C)C)cc1.O=C(O)C(O)C(O)C(=O)O (stereo not given) [METOPROLOL TARTRATE]	Compound NOT metabolized	Compound metabolized	Compound metabolized	Compound metabolized	Compound NOT metabolized	Compound NOT metabolized	Compound NOT metabolized	Compound NOT metabolized	Compound NOT metabolized	Compound NOT metabolized	Compound NOT metabolized	Compound NOT metabolized	Compound NOT metabolized	Compound metabolized	Compound NOT metabolized	Compound NOT metabolized	Compound NOT metabolized	Compound metabolized	Compound NOT metabolized	Compound NOT metabolized
